Read-outs that look alike come from different tables or passages of the source.
Assays:
B-Raf kinase = target: T1, B-Raf kinase (Homo sapiens, UniProt P15056); assay: Biochemical assay for B-Raf (coupled pyruvate kinase/lactate dehydrogenase); settings: read-out: BRAF
T1 construct: purchased Sigma

C-Raf kinase = target: T2, C-Raf kinase (Homo sapiens, UniProt P04049, Y340D/Y341D); assay: Biochemical assay for C-Raf (coupled pyruvate kinase/lactate dehydrogenase); settings: read-out: CRAF
T2 construct: C-Raf residues 306-end; Y340D, Y341D with N-; purchased Sigma
T2 sequence (P04049 307-648 Y340D/Y341D): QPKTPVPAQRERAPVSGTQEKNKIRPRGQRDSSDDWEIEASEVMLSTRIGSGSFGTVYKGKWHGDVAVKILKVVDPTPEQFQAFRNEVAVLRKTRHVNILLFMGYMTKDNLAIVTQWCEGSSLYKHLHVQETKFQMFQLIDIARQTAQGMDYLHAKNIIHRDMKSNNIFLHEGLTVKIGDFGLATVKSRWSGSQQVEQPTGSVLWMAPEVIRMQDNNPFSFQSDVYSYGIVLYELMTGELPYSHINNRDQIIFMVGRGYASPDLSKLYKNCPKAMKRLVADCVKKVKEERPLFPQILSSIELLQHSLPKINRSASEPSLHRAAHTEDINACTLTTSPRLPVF

MiaPaca-2 cells = assay: MiaPaca-2 cell proliferation assay (resazurin); format: cell-based; settings: read-out: MiaPaca-2
HCT-116 cells = assay: HCT-116 cell proliferation assay (resazurin); format: cell-based; settings: read-out: HCT-116
Method in brief: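 HCT-116 cells, 375 per well in McCoy's 5A with 10% FBS, exposed to serially diluted compound in triplicate for 67-72 h at 37 °C. Resazurin added for 4-5 h more; fluorescence (ex 540/em 600 nm) fitted to IC50.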

HPAF-II cells = assay: HPAF-II cell proliferation assay (resazurin); format: cell-based; settings: read-out: HPAF-II
Method in brief: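 Serial compound dilutions in triplicate with 750 cells/well in complete MEM with 10% FBS, 115 to 120 h at 37° C, 5% CO2. Resazurin then added for 18 to 24 h; fluorescence at ex 540/em 600 nm used to derive IC50.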

[1] = Table 1, inhibition of biochemical activity
[2] = Homo sapiens, MIA PaCa-2, Table 2, inhibition of cell proliferation
[3] = Homo sapiens, Table 2, inhibition of cell proliferation

T1 sequence (P15056 416-766): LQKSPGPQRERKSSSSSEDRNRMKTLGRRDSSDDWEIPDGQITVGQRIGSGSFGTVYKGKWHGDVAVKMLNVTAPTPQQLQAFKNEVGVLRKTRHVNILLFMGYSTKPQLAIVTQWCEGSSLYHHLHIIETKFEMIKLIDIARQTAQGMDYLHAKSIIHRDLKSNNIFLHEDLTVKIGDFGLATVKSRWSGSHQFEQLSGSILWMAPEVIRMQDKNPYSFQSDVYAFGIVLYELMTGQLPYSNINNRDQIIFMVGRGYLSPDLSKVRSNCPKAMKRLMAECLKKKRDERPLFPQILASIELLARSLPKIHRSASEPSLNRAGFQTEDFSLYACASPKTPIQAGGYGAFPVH

IC50 (B-Raf kinase; [1]) [nM]	IC50 (B-Raf kinase; Table 3) [nM]	IC50 (C-Raf kinase; [1]) [nM]	IC50 (C-Raf kinase; Table 3) [nM]	IC50 (MiaPaca-2 cells; [2]) [nM]	IC50 (MiaPaca-2 cells; Table 3) [nM]	IC50 (HCT-116 cells; [3]) [nM]	IC50 (HCT-116 cells; Table 3) [nM]	SMILES	IC50 (HPAF-II cells; [3]) [nM]	IC50 (HPAF-II cells; Table 3) [nM]
100 to 500	100 to 500	< 100	< 100	100 to 500	100 to 500	500 to 1000	500 to 1000	CNC(=O)c1cc(-c2cc(-c3cc(NC(=O)c4cc(C(F)(F)F)cnn4)ccc3C)cc(C)n2)ccn1 [Example 2, N,6-dimethyl-4-(2-methyl-5-(5-(trifluoromethyl)pyridazine-3-carboxamido)phenyl)-[2,4′-bipyridine]-2′-carboxamide]	500 to 1000	500 to 1000
< 100	< 100	< 100	< 100	100 to 500	100 to 500	100 to 500	100 to 500	CNC(=O)c1cc(-c2cc(-c3cc(NC(=O)c4cc(C(F)(F)F)cnn4)ccc3C)ccn2)ccn1 [Example 9]	100 to 500	100 to 500
< 100	< 100	< 100	< 100	< 100	< 100	< 100	< 100	CNC(=O)c1cc(-c2cc(-c3cc(NC(=O)c4cc(C(F)(F)F)cnn4)ccc3C)cc(NCCO)n2)ccn1 [Example 18]	100 to 500	100 to 500
< 100	< 100	< 100	< 100	100 to 500	100 to 500	100 to 500	100 to 500	CNC(=O)c1cc(-c2cc(-c3cc(NC(=O)c4cc(C5CC5)cnn4)ccc3C)ccn2)ccn1 [Example 26]	100 to 500	100 to 500
< 100	< 100	< 100	< 100	100 to 500	100 to 500	< 100	< 100	CNC(=O)c1cc(-c2cc(-c3cc(NC(=O)c4cc(C5CC5)cnn4)ccc3C)cc(NCCO)n2)ccn1 [Example 27]	100 to 500	100 to 500
